Measurements published in patent US8952249B2, “1,4-fullerene addends in photovoltaic cells” (The Regents of the University of California, priority 2010, dated 2015).

Legend:
[1] = Cyclic voltammetry: reduction potentials and energy of the LUMO; format: physicochemical; conditions: 1,2-dichlorobenzene, Bu4NClO4 (0.1 M), Pt wire counter electrode, 50 mV/s scan rate
Text: The synthesis of fullerenol was previously reported.^6 From fullerenol, we herein report on the syntheses of a set of derivatives by arylation as described in FIG. 1. In a typical reaction, fullerenol is reacted with a specific substrate (a substituted aryl) used as the solvent in the presence of p-toluene sulfonic acid (TsOH) as the catalyst. Following this procedure we synthesized: PEHOB (FIG. 2) (C60 functionalized with a phenyl group on C1 and an ethylhexyloxybenzene group on C4), PCVM (FIG. 3) (Phenyl on C1 and phenylvaleric acid methyl ester on C4), PTHOB (FIG. 4) (phenyl on C1 and trihexyloxyphenyl on C4), PFOH (FIG. 5) (phenyl on C1 and hydroxyl on C4); PFTFP (FIG. 6) (p-trifluorophenyl on C1 and pentafluorophenyl on C4) and ANP (FIG. 7) (phenyl on C1 and aniline on C4). 1H NMR, 13C NMR, 19F NMR and field desorption (FD) mass spectroscopy confirmed the identity of the products. The adducts were further characterized by cyclic voltammetry (CV) and UV-vis spectroscopy. […] From the first reduction potential calculated by CV we determined the energy of the LUMO. An estimated value of the HOMO was inferred from the onset of the UV-vis spectra. In order to modify the property of the derivatives, we appended (i) long alkyl chains to increase solubility and (ii) electron withdrawing or (iii) electron donating groups to stabilize or destabilize the energy of the LUMO respectively. Due to the spherical shape of C60, heteroatoms or functional groups appended on the fullerene can only affect the energy of the molecular orbitals by induction. Therefore, an electron donating group directly bound to C60 such a methoxy will […] the energy of the LUMO because of the higher electronegativity of the oxygen. […] These values are in agreement with previous reports.^8, 9 Table 1 (see below) summarizes the electrochemical data calculated for all the derivatives. […]

[2] = set-up: unit not given here; conditions: PCBM analogues described by Hummelen et al.; cited from earlier work

COC(=O)CCCC1(c2ccccc2)C23c4c5c6c7c8c9c(c%10c%11c2c2c%12c4c4c%13c5c5c7c7c8c8c%14c9c%10c9c%10c%11c2c2c%11c%12c4c4c%12c%13c5c5c7c7c8c8c%14c9c9c%10c2c2c%11c4c4c%12c5c7c5c8c9c2c45)C613 (stereo not shown) [PCBM, [6,6]-phenyl-C61-butyric acid methyl ester]
E1red [1]: −1.056 V vs Fc/Fc+ | E2red [1]: −1.471 V vs Fc/Fc+ | E3red [1]: −1.957 V vs Fc/Fc+ | redox potential [2]: −1.08
